From patent publication US6403534B1, “Uracil compounds and use thereof” (Sumitomo Chemical Company, Limited, priority 2000, dated 2002)

Tests used:
ivyleaf morningglory [1] = experiment: Test Example 3: foliar treatment of field; type: in vivo, Ipomoea hederacea; design: key: “0” means that there was no or little difference in the degree of germination or growth between the treated and the untreated tested plants at the time of examination; “10” means that the test plants died completely or their germination or growth was completely inhibited; details: index 0 to 10, 16 days after application
Experimental: (§1) Test for Foliar Treatment of Field A cylindrical plastic pot having a diameter of 10 cm and a depth of 10 cm was filled with soil and then seeded with ivyleaf morningglory and blackgrass. These test plants were grown in a greenhouse for 10 days. Then, each of the test compounds was formulated into an emulsifiable concentrate according to Formulation Example 2 and then diluted to the prescribed amount with water containing a spreading agent and the dilution was uniformly sprayed over the foliage of the test plants with a sprayer at a rate of 1000 liters per hectare. After the application, the test plants were grown in the greenhouse for 16 days, and the herbicidal activity was examined.

blackgrass [2] = experiment: Test Example 3: foliar treatment of field; type: in vivo, Alopecurus myosuroides; design: key: “0” means that there was no or little difference in the degree of germination or growth between the treated and the untreated tested plants at the time of examination; “10” means that the test plants died completely or their germination or growth was completely inhibited; details: index 0 to 10, 16 days after application
Experimental: as §1

ivyleaf morningglory [3] = experiment: Test Example 4: soil surface treatment of field; type: in vivo, Ipomoea hederacea; design: key: “0” means that there was no or little difference in the degree of germination or growth between the treated and the untreated tested plants at the time of examination; “10” means that the test plants died completely or their germination or growth was completely inhibited; details: index 0 to 10, 12 days after application
Excerpt: (§2) Test for Soil Surface Treatment of Field A plastic pot having an area of (26.5×19) cm^2 and a depth of 7 cm was filled with soil and then seeded with ivyleaf morningglory, velvetleaf, barnyardgrass and giant foxtail. Then, each of the test compounds was formulated into an emulsifiable concentrate according to Formulation Example 2 and then diluted to the prescribed amount with water, and the dilution was uniformly sprayed over the surface of the soil with a sprayer at a rate of 1000 liters per hectare. After the application, the test plants were grown in the greenhouse for 12 days, and the herbicidal activity was examined. The herbicidal activity was evaluated by the same method as in Test Example 3.

velvetleaf [4] = experiment: Test Example 4: soil surface treatment of field; type: in vivo, Abutilon theophrasti; design: key: “0” means that there was no or little difference in the degree of germination or growth between the treated and the untreated tested plants at the time of examination; “10” means that the test plants died completely or their germination or growth was completely inhibited; details: index 0 to 10, 12 days after application
Excerpt: as §2

barnyardgrass [5] = experiment: Test Example 4: soil surface treatment of field; type: in vivo, Echinochloa crus-galli; design: key: “0” means that there was no or little difference in the degree of germination or growth between the treated and the untreated tested plants at the time of examination; “10” means that the test plants died completely or their germination or growth was completely inhibited; details: index 0 to 10, 12 days after application
Excerpt: as §2

giant foxtail = experiment: Test Example 4: soil surface treatment of field; type: in vivo, Setaria faberi; design: key: “0” means that there was no or little difference in the degree of germination or growth between the treated and the untreated tested plants at the time of examination; “10” means that the test plants died completely or their germination or growth was completely inhibited; details: index 0 to 10, 12 days after application
Excerpt: as §2

barnyardgrass [6] = experiment: Test Example 1: foliar treatment of field; type: in vivo, Echinochloa crus-galli; details: foliar spray, 125 g/ha, plants grown 14 days before, examined 16 days after application
Experimental: (§3) Test for Foliar Treatment of Field
(§4) A cylindrical plastic pot having a diameter of 10 cm and a depth of 10 cm was filled with soil and then seeded with barnyardgrass, blackgrass, ivyleaf morningglory and velvetleaf These test plants were grown in a greenhouse for 14 days. Then, each of compounds 1-2, 1-3, 1-7, 1-19 and 1-28 was formulated into an emulsifiable concentrate according to Formulation Example 2 and then diluted to the prescribed amount with water containing a spreading agent and the dilution was uniformly sprayed over the foliage of the test plants with a sprayer at a rate of 1000 liters per hectare. After the application, the test plants were grown in the greenhouse for 16 days, and the herbicidal activity was determined.

blackgrass [7] = experiment: Test Example 1: foliar treatment of field; type: in vivo, Alopecurus myosuroides; details: foliar spray, 125 g/ha, plants grown 14 days before, examined 16 days after application
Experimental: as §3, §4

ivyleaf morningglory [8] = experiment: Test Example 1: foliar treatment of field; type: in vivo, Ipomoea hederacea; details: foliar spray, 125 g/ha, plants grown 14 days before, examined 16 days after application
Experimental: as §3, §4

velvetleaf [9] = experiment: Test Example 1: foliar treatment of field; type: in vivo, Abutilon theophrasti; details: foliar spray, 125 g/ha, plants grown 14 days before, examined 16 days after application
Experimental: as §3, §4

barnyardgrass [10] = experiment: Test Example 2: soil surface treatment of field; type: in vivo, Echinochloa crus-galli; details: soil surface spray, 500 g/ha, examined 19 days after application
Excerpt: (§5) Test for Soil Surface Treatment of Field
(§6) A cylindrical plastic pot having a diameter of 10 cm and a depth of 10 cm was filled with soil and then seeded with barnyardgrass, blackgrass, ivyleaf morningglory and velvetleaf. Then, each of compounds 1-2, 1-3, 1-7, 1-19 and 1-28 was formulated into an emulsifiable concentrate according to Formulation Example 2 and then diluted to the prescribed amount with water, and the dilution was uniformly sprayed over the surface of the soil with a sprayer at a rate of 1000 liters per hectare. After the application, the test plants were grown in the greenhouse for 19 days, and the herbicidal activity was examined.

blackgrass [11] = experiment: Test Example 2: soil surface treatment of field; type: in vivo, Alopecurus myosuroides; details: soil surface spray, 500 g/ha, examined 19 days after application
Excerpt: as §5, §6

ivyleaf morningglory [12] = experiment: Test Example 2: soil surface treatment of field; type: in vivo, Ipomoea hederacea; details: soil surface spray, 500 g/ha, examined 19 days after application
Excerpt: as §5, §6

velvetleaf [13] = experiment: Test Example 2: soil surface treatment of field; type: in vivo, Abutilon theophrasti; details: soil surface spray, 500 g/ha, examined 19 days after application
Excerpt: as §5, §6

Structure (SMILES) | Herbicidal activity Ivyleaf morningglory (ivyleaf morningglory [1]; dosage 8 g/ha) | Herbicidal activity Ivyleaf morningglory (ivyleaf morningglory [1]; dosage 32 g/ha) | Herbicidal activity Ivyleaf morningglory (ivyleaf morningglory [1]; dosage 125 g/ha) | Herbicidal activity Blackgrass (blackgrass [2]; dosage 8 g/ha) | Herbicidal activity Blackgrass (blackgrass [2]; dosage 32 g/ha) | Herbicidal activity Blackgrass (blackgrass [2]; dosage 125 g/ha) | Herbicidal activity Ivyleaf morningglory (ivyleaf morningglory [3]; dosage 32 g/ha) | Herbicidal activity Ivyleaf morningglory (ivyleaf morningglory [3]; dosage 125 g/ha) | Herbicidal activity Ivyleaf morningglory (ivyleaf morningglory [3]; dosage 500 g/ha) | Herbicidal activity Velvet leaf (velvetleaf [4]; dosage 32 g/ha) | Herbicidal activity Velvet leaf (velvetleaf [4]; dosage 125 g/ha) | Herbicidal activity Velvet leaf (velvetleaf [4]; dosage 500 g/ha) | herbicidal activity (growth of barnyardgrass) (barnyardgrass [6]) | herbicidal activity (growth of blackgrass) (blackgrass [7]) | herbicidal activity (growth of ivyleaf morningglory) (ivyleaf morningglory [8]) | herbicidal activity (growth of velvetleaf) (velvetleaf [9]) | herbicidal activity (germination of barnyardgrass) (barnyardgrass [10]) | herbicidal activity (germination of blackgrass) (blackgrass [11]) | herbicidal activity (germination of ivyleaf morningglory) (ivyleaf morningglory [12]) | herbicidal activity (germination of velvetleaf) (velvetleaf [13]) | further results
C=CCOC(=O)C(C)(C)Oc1cc(-n2c(=O)cc(C(F)(F)F)n(C)c2=O)c(F)cc1Cl [Comparative compound A, reference compound] | 7 | 10 | 10 | 3 | 4 | 6 | 0 | 4 | 8 | 3 | 10 | 10 |  |  |  |  |  |  |  |  | Herbicidal activity Barnyard grass (barnyardgrass [5]; dosage 32 g/ha): 1; Herbicidal activity Barnyard grass (barnyardgrass [5]; dosage 125 g/ha): 7; Herbicidal activity Barnyard grass (barnyardgrass [5]; dosage 500 g/ha): 10; Herbicidal activity Giant foxtail (giant foxtail; dosage 32 g/ha): 4; Herbicidal activity Giant foxtail (giant foxtail; dosage 125 g/ha): 10; Herbicidal activity Giant foxtail (giant foxtail; dosage 500 g/ha): 10
COC(=O)C1(Oc2cc(-n3c(=O)cc(C(F)(F)F)n(C)c3=O)c(F)cc2Cl)CC1 [Compound 1-2, methyl 1-[2-chloro-4-fluoro-5-{3-methyl-2,6-dioxo-4-(trifluoro-methyl)-1,2,3,6-tetrahydropyrimidin-1-yl}phenoxy]cyclo-propanecarboxylate] |  |  |  |  |  |  |  |  |  |  |  |  | completely controlled | completely controlled | completely controlled | completely controlled | completely controlled | completely controlled | completely controlled | completely controlled | 
CSC(=O)C1(Oc2cc(-n3c(=O)cc(C(F)(F)F)n(C)c3=O)c(F)cc2Cl)CC1 [Compound 1-19] |  |  |  |  |  |  |  |  |  |  |  |  | completely controlled | completely controlled | completely controlled | completely controlled | completely controlled | completely controlled | completely controlled | completely controlled | 
CCOC(=O)C1(Oc2cc(-n3c(=O)cc(C(F)(F)F)n(C)c3=O)c(F)cc2Cl)CC1 [Compound 1-3, ethyl 1-[2-chloro-4-fluoro-5-{3-methyl-2,6-dioxo-4-(trifluoromethyl)-1,2,3,6-tetrahydropyrimidin-1-yl}phenoxy]cyclopropanecarboxylate] |  |  |  |  |  |  |  |  |  |  |  |  | completely controlled | completely controlled | completely controlled | completely controlled | completely controlled | completely controlled | completely controlled | completely controlled | 
C=CCOC(=O)C1(Oc2cc(-n3c(=O)cc(C(F)(F)F)n(C)c3=O)c(F)cc2Cl)CC1 [Compound 1-7] | 10 | 10 | 10 | 5 | 6 | 10 | 2 | 10 | 10 | 10 | 10 | 10 | completely controlled | completely controlled | completely controlled | completely controlled | completely controlled | completely controlled | completely controlled | completely controlled | Herbicidal activity Barnyard grass (barnyardgrass [5]; dosage 32 g/ha): 6; Herbicidal activity Barnyard grass (barnyardgrass [5]; dosage 125 g/ha): 10; Herbicidal activity Barnyard grass (barnyardgrass [5]; dosage 500 g/ha): 10; Herbicidal activity Giant foxtail (giant foxtail; dosage 32 g/ha): 10; Herbicidal activity Giant foxtail (giant foxtail; dosage 125 g/ha): 10; Herbicidal activity Giant foxtail (giant foxtail; dosage 500 g/ha): 10
COC(=O)C(CC(C)C)NC(=O)C1(Oc2cc(-n3c(=O)cc(C(F)(F)F)n(C)c3=O)c(F)cc2Cl)CC1 (stereo not shown) [Compound 1-28] |  |  |  |  |  |  |  |  |  |  |  |  | completely controlled | completely controlled | completely controlled | completely controlled | completely controlled | completely controlled | completely controlled | completely controlled | 
